Where no end group is shown, it is not given here.
Test system: ICAM-1 expression in HUVECs
Assay: ICAM-1 expression in HUVECs chronically treated with CRH, then PMA
Format: cell-based, Human
Settings: data not shown
Protocol: Following this, the cells were oxidatively stressed for 24 hours with 1 μM PMA (Sigma P8139).
Receptor antagonists were added to the cells during the pre-treatment period. These included the Glucocorticoid Receptor Antagonist; 2 μM Mifepristone (Sigma M8046) and two CRH receptor antagonists; 200 nM Astressin (Sigma A4933) and 200 nM α-helical CRF peptide antagonist (Sigma C2917).
ICAM-1 protein in each cell lysate was estimated using the Human sICAM-1 DuoSet ELISA kit (R&D Systems DY720) according to the manufacturer's instructions.
The capture antibody was diluted to a final concentration of 4 μg/ml in PBS and 100 μl was used to coat each well of a 96-well microtitre plate overnight at room temperature. The plate was then washed three times with wash buffer (0.05% Tween 20 in PBS). Each well received 300 μl of blocking buffer (1% BSA, 5% sucrose and 0.05% sodium azide in PBS), and the plate was incubated at room temperature for 1 hour before being washed as before. Each cell lysate was then diluted 1/200 in reagent diluent (1% BSA in PBS) and 100 μl added to duplicate wells of the antibody coated plate. Eight ICAM-1 standards were prepared in reagent diluent, at concentrations ranging from 0 to 1000 pg/ml, and duplicate 100 μl standards were added to the appropriate wells on the plate. A separate set of standards was routinely used for each plate. The plate was incubated at room temperature for 2 hours before being washed again. 100 μl of detection antibody, diluted to a final concentration of 100 ng/ml, was added to each well and the plate incubated at room temperature for 2 hours. […] The absorbance of the plates was measured at 450 nm with the correction wavelength set at 570 nm.
A standard curve was plotted of mean absorbance versus ICAM-1 concentration and the line of best fit calculated by regression analysis. The unknown concentration of ICAM-1 in the samples was calculated from this, taking the lysate dilution factor into account.
To normalise for differences in cell number and total protein concentration, the final result was expressed as ng ICAM-1 per mg of total protein. […]

With astressin the “Effect on increased induction of ICAM-1 post-oxidative stress” value (200 nM CRH receptor antagonist during 5-day CRH pre-treatment, then PMA) was “only partially blocked” and the “Level of ICAM-1 relative to that induced by oxidative stress after pre-treatment with CRH for five days” value (200 nM CRH receptor antagonist during CRH pre-treatment) was “approximately half”.
In the case of “CRH: Corticotrophin Releasing Hormone, Calbiochem 05-23-0050 (SEEPPISLDLTFHLLREVLEMARAEQLAQQAHSNRKLMEII; ends and bridges not checked; UniProt P06850 154-194, looked up)”, the “Change in ICAM-1 secretion after chronic CRH treatment” value (1 to 100 nM CRH daily for 5 days, then PMA, vs untreated cells) is reported as “significant increase”.

— US20080254152A1, “Methods for Reducing the Effects of Stress on Skin Condition” (priority 2003, published 2008)
